Laboratory results taken from US20220251036A1, “DIFLUOROHALOALLYLAMINE SULFONE DERIVATIVE INHIBITORS OF LYSYL OXIDASES, METHODS OF PREPARATION, AND USES THEREOF” (PHARMAXIS LTD., priority 2019, published 2022).
Read-outs that look alike come from different tables or passages of the source. Values belong to the compound of their own block, whether it stands above or below them.

Assays:
Format in all cases: biochemical
Human recombinant LOXL1 = target: T1, Human recombinant LOXL1 (Homo sapiens, UniProt Q08397); assay: LOXL1 inhibition, Amplex Red oxidation assay
T1 sequence (Q08397 96-574): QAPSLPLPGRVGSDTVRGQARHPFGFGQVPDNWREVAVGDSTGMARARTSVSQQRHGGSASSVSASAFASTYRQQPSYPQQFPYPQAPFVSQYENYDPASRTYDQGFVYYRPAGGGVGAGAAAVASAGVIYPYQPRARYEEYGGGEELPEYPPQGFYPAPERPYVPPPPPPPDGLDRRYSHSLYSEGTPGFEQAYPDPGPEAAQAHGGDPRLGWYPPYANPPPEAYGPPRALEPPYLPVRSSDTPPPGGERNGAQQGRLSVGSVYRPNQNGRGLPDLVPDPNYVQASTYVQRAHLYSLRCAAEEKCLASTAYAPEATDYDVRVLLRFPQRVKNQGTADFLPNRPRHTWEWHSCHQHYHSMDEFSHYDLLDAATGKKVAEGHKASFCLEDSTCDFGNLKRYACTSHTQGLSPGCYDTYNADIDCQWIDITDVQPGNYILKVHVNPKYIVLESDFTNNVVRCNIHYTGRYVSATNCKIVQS
Experimental: (§1) LOX and LOXL protein family members can be acquired as recombinant active proteins from commercial sources, or extracted from animal tissues like bovine aorta, tendons, pig skin; or prepared from cell cultures. […] The assay was developed using either 384 or 96 well format. Briefly, in a standard black, clear bottom 384 well plate assay 25 μL of a dilution of any of the isoenzymes and orthologues in 1.2 M urea, 50 mM sodium borate buffer (pH 8.2) were added into each well in the presence of 1 μM mofegiline and 0.5 mM pargyline (to inhibit SSAO and MAO-B and MAO-A, respectively; not necessary if the enzyme is from a recombinant or purified form). Test compounds were dissolved in DMSO and tested in a Concentration Response Curve (CRC) with 11 data points, typically in the micromolar or nanomolar range after incubation with the enzyme for 30 min at 37° C. 25 μL of a reaction mixture containing twice the KM concentration of putrescine (Sigma Aldrich, e.g. 20 mM for LOX and LOXL1 or 10 mM for LOXL2 and 4 mM for LOXL3 and LOXL4), 120 μM Amplex Red (Sigma Aldrich) and 1.5 U/mL horseradish peroxidase (Sigma Aldrich) prepared in 1.2 M urea, 50 mM sodium borate buffer (pH 8.2) were then added to the corresponding wells. The above volumes were doubled in the case of 96 wells plate. The fluorescence (RFU) was read every 2.5 min for 30 min at […] 37° C., excitation 565 nm and emission 590 (Optima; BMG labtech). The slope of the kinetics for each well was calculated using MARS data analysis software (BMG labtech) and this value was used to deduce the IC50 value (Dotmatics). The ability of the inventive compounds to inhibit the amine oxidase activity of LOX and other family members is shown in Table 4.

Human recombinant LOXL3 = target: T2, Human recombinant LOXL3 (Homo sapiens, UniProt P58215); assay: LOXL3 inhibition, Amplex Red oxidation assay
T2 sequence (P58215 26-753): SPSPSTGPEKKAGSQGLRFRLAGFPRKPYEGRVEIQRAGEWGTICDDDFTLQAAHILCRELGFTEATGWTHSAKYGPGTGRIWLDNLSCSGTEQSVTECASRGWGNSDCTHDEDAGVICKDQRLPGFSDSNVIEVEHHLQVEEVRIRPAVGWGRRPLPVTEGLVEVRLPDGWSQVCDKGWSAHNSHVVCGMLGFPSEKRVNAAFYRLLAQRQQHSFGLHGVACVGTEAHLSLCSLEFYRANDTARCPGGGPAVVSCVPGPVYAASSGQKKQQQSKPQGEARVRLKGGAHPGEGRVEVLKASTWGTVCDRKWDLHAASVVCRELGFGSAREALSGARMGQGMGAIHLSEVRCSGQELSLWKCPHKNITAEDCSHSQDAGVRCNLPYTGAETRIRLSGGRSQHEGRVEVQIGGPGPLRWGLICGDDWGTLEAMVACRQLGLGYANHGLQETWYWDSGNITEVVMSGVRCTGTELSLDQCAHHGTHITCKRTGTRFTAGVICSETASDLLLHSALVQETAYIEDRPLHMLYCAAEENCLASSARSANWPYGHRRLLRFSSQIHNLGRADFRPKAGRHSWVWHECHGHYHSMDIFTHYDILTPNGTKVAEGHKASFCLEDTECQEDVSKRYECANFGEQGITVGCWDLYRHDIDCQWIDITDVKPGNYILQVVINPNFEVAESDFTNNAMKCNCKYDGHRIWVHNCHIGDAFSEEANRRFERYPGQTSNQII
Experimental: as §1

recombinant human MAO-B = target: T3, recombinant human MAO-B (Homo sapiens, UniProt P27338); assay: MAO-B inhibition; conditions: benzylamine 100 μM
T3 construct: purchased Sigma Aldrich
T3 sequence (P27338 1-520): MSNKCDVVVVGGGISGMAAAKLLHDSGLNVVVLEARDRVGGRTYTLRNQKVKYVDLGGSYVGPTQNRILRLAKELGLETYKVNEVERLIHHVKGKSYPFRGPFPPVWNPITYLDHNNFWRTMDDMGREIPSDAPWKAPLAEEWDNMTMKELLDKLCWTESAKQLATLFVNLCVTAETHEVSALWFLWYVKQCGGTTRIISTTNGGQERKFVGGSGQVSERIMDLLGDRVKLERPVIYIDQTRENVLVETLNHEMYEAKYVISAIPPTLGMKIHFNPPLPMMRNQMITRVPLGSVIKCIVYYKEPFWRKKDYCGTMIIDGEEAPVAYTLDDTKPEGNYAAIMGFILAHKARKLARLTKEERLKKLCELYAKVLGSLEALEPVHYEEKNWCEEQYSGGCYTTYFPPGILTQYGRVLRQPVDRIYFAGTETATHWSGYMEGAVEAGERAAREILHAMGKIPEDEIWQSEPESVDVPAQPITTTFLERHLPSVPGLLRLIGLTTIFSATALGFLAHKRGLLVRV
Experimental: The specificity of the compounds of this invention was tested by determining their ability to inhibit MAO-B activity in vitro using recombinant human MAO-B (0.02 mg/mL; Sigma Aldrich). The assay was performed in a similar way as for human SSAO/VAP-1 (Example 8) except, the substrate benzylamine was used at 100 μM.

[1] = incubation with enzyme 30 min at 37° C, read-out: Human recombinant LOXL1 Activity IC50
[2] = incubation with enzyme 30 min at 37° C, read-out: Human recombinant LOXL3 Activity IC50

IC50 (Human recombinant LOXL1; [1]): 4.6 µM
IC50 (Human recombinant LOXL3; [2]): 0.8 µM
SMILES: CS(=O)(=O)c1cccc(CS(=O)(=O)C(F)(F)/C(F)=C/CN)c1 [Compound 17, (Z)-3,4,4-trifluoro-4-((3-(methylsulfonyl)benzyl)sulfonyl)but-2-en-1-amine]

IC50 (Human recombinant LOXL1; [1]): 5.1 µM
IC50 (Human recombinant LOXL3; [2]): 1.8 µM
IC50 (recombinant human MAO-B): > 30 µM
SMILES: Cc1ccc(S(=O)(=O)C(F)(F)/C(F)=C/CN)cc1 [Compound 6, (Z)-3,4,4-trifluoro-4-tosylbut-2-en-1-amine]

IC50 (Human recombinant LOXL1; [1]): 13.4 µM
IC50 (Human recombinant LOXL3; [2]): 16.4 µM
SMILES: NC/C=C(\F)C(F)(F)S(=O)(=O)c1cccc2cccnc12 [Compound 2, (Z)-3,4,4-trifluoro-4-(quinolin-8-ylsulfonyl)but-2-en-1-amine]

IC50 (Human recombinant LOXL1; [1]): 3.1 µM
IC50 (Human recombinant LOXL3; [2]): 1 µM
IC50 (recombinant human MAO-B): > 30 µM
SMILES: NC/C=C(\F)C(F)(F)S(=O)(=O)Cc1ccccc1 [Compound 8, (Z)-4-(benzylsulfony1)-3,4,4-trifluorobut-2-en-1-amine]

IC50 (Human recombinant LOXL1; [1]): 7 µM
IC50 (Human recombinant LOXL3; [2]): 1.2 µM
SMILES: NC/C=C(\F)C(F)(F)S(=O)(=O)c1cccs1 [Compound 14, (Z)-3,4,4-trifluoro-4-(thiophen-2-ylsulfonyl)but-2-en-1-amine]

IC50 (Human recombinant LOXL1; [1]): 4.8 µM
IC50 (Human recombinant LOXL3; [2]): 7.4 µM
IC50 (recombinant human MAO-B): ≥ 30 µM
SMILES: CNc1ccccc1S(=O)(=O)C(F)(F)/C(F)=C/CN [Compound 4, (Z)-2-((4-amino-1,1,2-trifluorobut-2-en-yl)sulfony1)-N-methylaniline]

IC50 (recombinant human MAO-B): > 30 µM
SMILES: Cc1ccccc1S(=O)(=O)C(F)(F)/C(F)=C/CN [Compound 5, (Z)-3,4,4-trifluoro-4-(o-tolylsulfonyl)but-2-en-1-amine]

IC50 (Human recombinant LOXL1; [1]): 7.4 µM
IC50 (Human recombinant LOXL3; [2]): 2.7 µM
SMILES: COc1cccc(S(=O)(=O)C(F)(F)/C(F)=C/CN)c1 [Compound 12, (Z)-3,4,4-trifluoro-4-((3-methoxyphenyl)sulfonyl)but-2-en-1-amine]

Continued, compound first:

SMILES: NC/C=C(\F)C(F)(F)S(=O)(=O)C1CCCC1 [Compound 19, (Z)-4-(cyclopentylsulfony1)-3,4,4-trifluorobut-2-en-1-amine]
IC50 (Human recombinant LOXL1; [1]): 4.3 µM
IC50 (Human recombinant LOXL3; [2]): 1.3 µM

SMILES: NC/C=C(\F)C(F)(F)[S+]([O-])c1ccccc1 (stereo not drawn) [Compound 9, (Z)-3,4,4-trifluoro-4-(phenylsulfinyl)but-2-en-1-amine]
IC50 (Human recombinant LOXL1; [1]): 8.7 µM
IC50 (Human recombinant LOXL3; [2]): 5.2 µM

SMILES: CS(=O)(=O)c1ccc(COc2ccccc2S(=O)(=O)C(F)(F)/C(F)=C/CN)cc1 [Compound 10, (Z)-3,4,4-trifluoro-4-((2-((4-(methylsulfonyl)benzyl)oxy)phenyl)sulfonyl) but-2-en-1-amine]
IC50 (Human recombinant LOXL1; [1]): 2 µM
IC50 (Human recombinant LOXL3; [2]): 1.5 µM
IC50 (recombinant human MAO-B): > 30 µM

SMILES: N#CCCN [BAPN, β-aminopropionitrile, reference compound]
IC50 (Human recombinant LOXL1; [1]): 2.5 µM
IC50 (Human recombinant LOXL3; [2]): 0.5 µM
IC50 (recombinant human MAO-B): > 30 µM

SMILES: NC/C=C(\F)C(F)(F)S(=O)(=O)c1ccccc1 [Compound 1, (Z)-3,4,4-trifluoro-4-(phenylsulfonyl)but-2-en-1-amine]
IC50 (Human recombinant LOXL1): 3.4 µM
IC50 (Human recombinant LOXL3): 1.5 µM
